Legend:
Tribolium castaneum [1] = test: Feeding deterrent activity against adult Tribolium castaneum (red flour beetle) on compound pre-treated wheat flour disks assessed as food utilization rate at 10 ppm after 3 days by flour disk bioassay (reference value: 20.59 +/-1.47%); assay type: functional
Tribolium castaneum [2] = test: Feeding deterrent activity against adult Tribolium castaneum (red flour beetle) on compound pre-treated wheat flour disks assessed as food utilization rate at 3 ppm after 3 days by flour disk bioassay (reference value: 20.59 +/-1.47%); assay type: functional
Sitophilus zeamais [3] = test: Feeding deterrent activity against adult Sitophilus zeamais on compound pretreated wheat flour disks assessed as food utilization rate at 1000 ppm after 3 days by flour disk bioassay (reference value: 11.09 +/-1.12%); assay type: functional
Sitophilus zeamais [4] = test: Feeding deterrent activity against adult Sitophilus zeamais on compound pretreated wheat flour disks assessed as food utilization rate at 100 ppm after 3 days by flour disk bioassay (reference value: 11.09 +/-1.12%); assay type: functional
Sitophilus zeamais [5] = test: Feeding deterrent activity against adult Sitophilus zeamais on compound pretreated wheat flour disks assessed as food utilization rate at 30 ppm after 3 days by flour disk bioassay (reference value: 11.09 +/-1.12%); assay type: functional
Sitophilus zeamais [6] = test: Feeding deterrent activity against adult Sitophilus zeamais on compound pretreated wheat flour disks assessed as food utilization rate at 10 ppm after 3 days by flour disk bioassay (reference value: 11.09 +/-1.12%); assay type: functional
Sitophilus zeamais [7] = test: Feeding deterrent activity against adult Sitophilus zeamais on compound pretreated wheat flour disks assessed as food utilization rate at 3 ppm after 3 days by flour disk bioassay (reference value: 11.09 +/-1.12%); assay type: functional
Tribolium castaneum [8] = test: Feeding deterrent activity against adult Tribolium castaneum (red flour beetle) on compound pre-treated wheat flour disks assessed as relative food consumption rate at 1000 ppm after 3 days by flour disk bioassay (reference value: 143.22 +/-4.32 ug/mg/day); assay type: functional
Tribolium castaneum [9] = test: Feeding deterrent activity against adult Tribolium castaneum (red flour beetle) on compound pre-treated wheat flour disks assessed as relative food consumption rate at 300 ppm after 3 days by flour disk bioassay (reference value: 143.22 +/-4.32 ug/mg/day); assay type: functional
Tribolium castaneum [10] = test: Feeding deterrent activity against adult Tribolium castaneum (red flour beetle) on compound pre-treated wheat flour disks assessed as relative food consumption rate at 30 ppm after 3 days by flour disk bioassay (reference value: 143.22 +/-4.32 ug/mg/day); assay type: functional
Sitophilus zeamais [11] = test: Feeding deterrent activity against adult Sitophilus zeamais on compound pretreated wheat flour disks assessed as relative food consumption rate at 1000 ppm after 3 days by flour disk bioassay (reference value: 122.72 +/-4.32 ug/mg/day); assay type: functional
Sitophilus zeamais [12] = test: Feeding deterrent activity against adult Sitophilus zeamais on compound pretreated wheat flour disks assessed as relative food consumption rate at 300 ppm after 3 days by flour disk bioassay (reference value: 122.72 +/-4.32 ug/mg/day); assay type: functional
Sitophilus zeamais [13] = test: Feeding deterrent activity against adult Sitophilus zeamais on compound pretreated wheat flour disks assessed as relative food consumption rate at 30 ppm after 3 days by flour disk bioassay (reference value: 122.72 +/-4.32 ug/mg/day); assay type: functional
Sitophilus zeamais [14] = test: Feeding deterrent activity against adult Sitophilus zeamais on compound pretreated wheat flour disks assessed as relative food consumption rate at 3 ppm after 3 days by flour disk bioassay (reference value: 122.72 +/-4.32 ug/mg/day); assay type: functional
Tribolium castaneum [15] = test: Feeding deterrent activity against adult Tribolium castaneum (red flour beetle) on compound pre-treated wheat flour disks assessed as relative growth rate at 300 ppm after 3 days by flour disk bioassay (reference value: 29.49 +/-1.35 ug/mg/day); assay type: functional
Sitophilus zeamais [16] = test: Feeding deterrent activity against adult Sitophilus zeamais on compound pretreated wheat flour disks after 3 days by flour disk bioassay; assay type: functional, organism-based
Tribolium castaneum [17] = test: Feeding deterrent activity against adult Tribolium castaneum (red flour beetle) on compound pre-treated wheat flour disks at 300 ppm after 3 days by flour disk bioassay; assay type: functional
Tribolium castaneum [18] = test: Feeding deterrent activity against adult Tribolium castaneum (red flour beetle) on compound pre-treated wheat flour disks assessed as relative growth rate at 100 ppm after 3 days by flour disk bioassay (reference value: 29.49 +/-1.35 ug/mg/day); assay type: functional
Tribolium castaneum [19] = test: Feeding deterrent activity against adult Tribolium castaneum (red flour beetle) on compound pre-treated wheat flour disks assessed as relative growth rate at 30 ppm after 3 days by flour disk bioassay (reference value: 29.49 +/-1.35 ug/mg/day); assay type: functional
Sitophilus zeamais [20] = test: Feeding deterrent activity against adult Sitophilus zeamais on compound pretreated wheat flour disks assessed as relative growth rate at 300 ppm after 3 days by flour disk bioassay (reference value: 13.61 +/-1.13 ug/mg/day); assay type: functional
Sitophilus zeamais [21] = test: Feeding deterrent activity against adult Sitophilus zeamais on compound pretreated wheat flour disks assessed as relative growth rate at 100 ppm after 3 days by flour disk bioassay (reference value: 13.61 +/-1.13 ug/mg/day); assay type: functional
Sitophilus zeamais [22] = test: Feeding deterrent activity against adult Sitophilus zeamais on compound pretreated wheat flour disks assessed as relative growth rate at 10 ppm after 3 days by flour disk bioassay (reference value: 13.61 +/-1.13 ug/mg/day); assay type: functional
Sitophilus zeamais [23] = test: Feeding deterrent activity against adult Sitophilus zeamais on compound pretreated wheat flour disks assessed as relative growth rate at 30 ppm after 3 days by flour disk bioassay (reference value: 13.61 +/-1.13 ug/mg/day); assay type: functional
Sitophilus zeamais [24] = test: Feeding deterrent activity against adult Sitophilus zeamais on compound pretreated wheat flour disks assessed as relative growth rate at 3 ppm after 3 days by flour disk bioassay (reference value: 13.61 +/-1.13 ug/mg/day); assay type: functional
Sitophilus zeamais [25] = test: Feeding deterrent activity against adult Sitophilus zeamais on compound pretreated wheat flour disks at 3 ppm after 3 days by flour disk bioassay; assay type: functional
Tribolium castaneum [26] = test: Feeding deterrent activity against adult Tribolium castaneum (red flour beetle) on compound pre-treated wheat flour disks assessed as mortality at 1000 ppm after 3 days by flour disk bioassay (reference value: 0%); assay type: functional
Tribolium castaneum [27] = test: Feeding deterrent activity against adult Tribolium castaneum (red flour beetle) on compound pre-treated wheat flour disks assessed as mortality at 30 ppm after 3 days by flour disk bioassay (reference value: 0%); assay type: functional
Tribolium castaneum [28] = test: Feeding deterrent activity against adult Tribolium castaneum (red flour beetle) on compound pre-treated wheat flour disks assessed as mortality at 10 ppm after 3 days by flour disk bioassay (reference value: 0%); assay type: functional
Tribolium castaneum [29] = test: Feeding deterrent activity against adult Tribolium castaneum (red flour beetle) on compound pre-treated wheat flour disks assessed as mortality at 3 ppm after 3 days by flour disk bioassay (reference value: 0%); assay type: functional
Sitophilus zeamais [30] = test: Feeding deterrent activity against adult Sitophilus zeamais on compound pretreated wheat flour disks assessed as mortality at 1000 ppm after 3 days by flour disk bioassay (reference value: 0%); assay type: functional
Sitophilus zeamais [31] = test: Feeding deterrent activity against adult Sitophilus zeamais on compound pretreated wheat flour disks assessed as mortality at 300 ppm after 3 days by flour disk bioassay (reference value: 0%); assay type: functional
Sitophilus zeamais [32] = test: Feeding deterrent activity against adult Sitophilus zeamais on compound pretreated wheat flour disks assessed as mortality at 10 ppm after 3 days by flour disk bioassay (reference value: 0%); assay type: functional
Tribolium castaneum [33] = test: Feeding deterrent activity against adult Tribolium castaneum (red flour beetle) on compound pre-treated wheat flour disks assessed as food utilization rate at 1000 ppm after 3 days by flour disk bioassay (reference value: 20.59 +/-1.47%); assay type: functional
Tribolium castaneum [34] = test: Feeding deterrent activity against adult Tribolium castaneum (red flour beetle) on compound pre-treated wheat flour disks assessed as food utilization rate at 300 ppm after 3 days by flour disk bioassay (reference value: 20.59 +/-1.47%); assay type: functional

Compound	ECI (Tribolium castaneum [1])	ECI (Tribolium castaneum [2])	ECI (Sitophilus zeamais [3])	ECI (Sitophilus zeamais [4])	ECI (Sitophilus zeamais [5])	ECI (Sitophilus zeamais [6])	ECI (Sitophilus zeamais [7])	Activity (Tribolium castaneum [8])	Activity (Tribolium castaneum [9])	Activity (Tribolium castaneum [10])	Activity (Sitophilus zeamais [11])	Activity (Sitophilus zeamais [12])	Activity (Sitophilus zeamais [13])	Activity (Sitophilus zeamais [14])	Activity (Tribolium castaneum [15])	EC50 (Sitophilus zeamais [16])	FDI (Tribolium castaneum [17])	Activity (Tribolium castaneum [18])	Activity (Tribolium castaneum [19])	Activity (Sitophilus zeamais [20])	further results
CCCCCCCc1cc(=O)c2ccccc2n1C [SCHINIFOLINE]	20.32%	20.68%	3.84%	7.54%	10.07%	10.73%	11.21%	2.13 µg/mg/day	21.29 µg/mg/day	79.64 µg/mg/day	10.51 µg/mg/day	34.51 µg/mg/day	89.93 µg/mg/day	122.39 µg/mg/day	1.6 µg/mg/day	85.63 ppm	85.85%	6.17 µg/mg/day	13.13 µg/mg/day	2.04 µg/mg/day	Activity (Sitophilus zeamais [21]): 3.79 µg/mg/day; Activity (Sitophilus zeamais [22]): 12.25 µg/mg/day; Activity (Sitophilus zeamais [23]): 9.06 µg/mg/day; Activity (Sitophilus zeamais [24]): 13.72 µg/mg/day; FDI (Sitophilus zeamais [25]): 1.47%; mortality at 1000 ppm (Tribolium castaneum [26]): 20%; mortality at 30 ppm (Tribolium castaneum [27]): 0%; mortality at 10 ppm (Tribolium castaneum [28]): 0%; mortality at 3 ppm (Tribolium castaneum [29]): 0%; mortality at 1000 ppm (Sitophilus zeamais [30]): 16%; mortality at 300 ppm (Sitophilus zeamais [31]): 6%; mortality at 10 ppm (Sitophilus zeamais [32]): 0%; ECI (Tribolium castaneum [33]): 3.29%; ECI (Tribolium castaneum [34]): 7.53%
COc1ccc2c(OC)c3ccoc3nc2c1OC [SKIMMIANINE]	19.41%	20.25%	4.21%	8.37%	10.34%	10.67%	10.98%	15.72 µg/mg/day	31.56 µg/mg/day	101.27 µg/mg/day	18.31 µg/mg/day	45.13 µg/mg/day	92.84 µg/mg/day	120.9 µg/mg/day	3.17 µg/mg/day	129.72 ppm	68.62%	8.49 µg/mg/day	15.31 µg/mg/day	3.07 µg/mg/day	Activity (Sitophilus zeamais [21]): 4.99 µg/mg/day; Activity (Sitophilus zeamais [22]): 12.03 µg/mg/day; Activity (Sitophilus zeamais [23]): 9.6 µg/mg/day; Activity (Sitophilus zeamais [24]): 13.27 µg/mg/day; FDI (Sitophilus zeamais [25]): 3.53%; mortality at 1000 ppm (Tribolium castaneum [26]): 14%; mortality at 30 ppm (Tribolium castaneum [27]): 0%; mortality at 10 ppm (Tribolium castaneum [28]): 0%; mortality at 3 ppm (Tribolium castaneum [29]): 0%; mortality at 1000 ppm (Sitophilus zeamais [30]): 10%; mortality at 300 ppm (Sitophilus zeamais [31]): 4%; mortality at 10 ppm (Sitophilus zeamais [32]): 0%; ECI (Tribolium castaneum [33]): 7.81%; ECI (Tribolium castaneum [34]): 10.03%

Reference: ChEMBL document CHEMBL3045561, “Feeding deterrents from Zanthoxylum schinifolium against two stored-product insects” (J Agric Food Chem, 2009)
